# Assay results reported in patent publication US10925890B2, “Use of dextran sulfate” (TX MEDIC AB, priority 2014, dated 2021).
# Entries after “also recorded” stand apart in the source; their conditions may differ.
# What was measured:
# Type in all cases: in vivo
# [1] = system: tMCAO rat-stroke model; assay: Body swing test, tMCAO rat; details: all treated rats; day 7 up to day 28
# Protocol: (§1) Transient middle cerebral artery occlusion was performed according to the method previously described in Stroke 29, 2162-2170 (1998). The right common carotid artery (CCA) was exposed through a midline neck incision and carefully dissected free from surrounding nerves and fascia—from its bifurcation to the base of the skull. The occipital artery branches of the external carotid artery (ECA) were then isolated, and these branches were dissected and coagulated. The ECA was dissected further distally and coagulated along with the terminal lingual and maxillary artery branches, which was then divided. The internal carotid artery (ICA) was isolated and carefully separated from the adjacent vagus nerve, and the pterygopalatine artery was ligated close to its origin with a 5-0 nylon suture (SMI, Belgium). […]
# The rat was held approximately one inch from the base of its tail. […] A swing was recorded whenever the rat moves its head out of the vertical axis to either side. Before attempting another swing, the rat was returned to the vertical position for the next swing to be counted. Twenty total swings were counted. […] Body swing scores were expressed as a percentage of rightward over total swings. […]
# [2] = Adverse effects / general health, mouse hind-limb ischemia study; details: 10 or 30 mg/kg s.c., up to day 35
# Protocol: The collective data of the study confirmed the therapeutic efficacy of dextran sulfate given s.c. for the treatment of occlusive peripheral arterial disease in the Balb/c mouse animal model.
# No adverse effect on general health was recorded in any of the groups. […] The findings reflect changes in blood vessel morphology, i.e. capillaries density increase, and blood vessels angiogenesis.
# [3] = system: Critical Hind-Limb Ischemia Mouse Model; assay: Immunohistochemistry and capillaries density (CD34, SMA, FITC-dextran), mouse hind-limb ischemia
# Protocol: Mice were sacrificed at study termination on day 36. Fluorescein isothiocyanate (FITC)—dextran 500000 Da conjugate 10 mg/ml was injected i.v. in a dose of 200 μl per mouse 5 minutes before sacrifice to all animals. Quadriceps muscle was dissected into coronary part. The muscle was fixed in 2.5% fresh paraformaldehyde (pH 7.4) for 24 hours and was then embedded in the paraffin for smooth muscle actin (SMA) with mouse monoclonal antibodies (anti-SMA Ab-1, clone 1A4, 1:800, Thermo scientific) and CD34 with anti CD34 (1:200, Cedralene) immunostaining. Paraffin embedding was done according the standard embedding procedure.
# Stained sections were evaluated and photographed by fluorescence microscope (E600; Nikon, Tokyo, Japan) equipped with plan fluor objectives connected to a CCD camera (DMX1200F; Nikon). […] Digital images were collected and analyzed using Image Pro+ software. Four sections of muscle samples were taken from the same areas of eight animals from groups 1M, 3M and 4M. The area of blood vessels was measured. Density was expressed as the mean number of capillaries per field of view. Total vessels represent all blood vessels in the measured area.
# [4] = system: tMCAO rat-stroke model; assay: Forelimb placing test, tMCAO rat
# Protocol: as §1, with “Belgium). Next a 4-0 silk suture was tied loosely around the mobilized ECA stump, and a 4 cm length of 4-0 monofilament nylon suture (the tip of the suture was blunted by using a flame, and the suture was coated with polylysine, prior to insertion) was inserted through the proximal ECA into the ICA and thence into the circle of Willis, effectively occluding the MCA.” for “Belgium).”
# For each subtest, animals were scored as followed: • 0.0=immediate response • 0.5=response within 2 seconds • 1.0=response of 2-3 seconds • 1.5=response of >3 seconds • 2.0=no response
# [5] = system: tMCAO rat-stroke model; assay: Brain immunostaining: capillaries density (SMA) and GFAP, tMCAO rat
# From the text: On day 30 after MCAO, rats were anesthetized by ketamine/xylazine were transcardiacly perfused by buffered paraformaldehyde (PFA) 4%. The brains were collected fixed in 4% buffered PFA for immunostaining and histological evaluation.
# Two sections of brain samples were taken from the same areas of six animals from groups 1M and 3M. Capillaries were counted under the microscope in a total of three random fields from each section. Density was expressed as the mean number of capillaries per field of view.
# [6] = system: rat model of myocardial infarction; assay: Infarct size (Masson's trichrome), rat myocardial infarction model; details: 35 days after MI induction
# Protocol: The myocardial infarction model in rat involved ligations of the left coronary artery permanently with an intramural stitch. The surgery caused obstruction of the blood flow and subsequently to severe ischemic damage and cardiac walls infarct.
# On the day of surgery the animals were anesthetized with a combination of 90 mg/kg ketamine and 10 mg/kg xylazine. In order to induce MI, under anesthesia and analgesia, the rat chest was opened by left thoracotomy, the pericardium was removed and the proximal left coronary artery was permanently occluyded with an intramural stitch (Circulation 117, 1388-1396 (2008)). Two hours post surgery, each animal in all treated groups were injected s.c. with dextran sulfate or saline vehicle according to Table 11.
# On day 36 after MI induction, the rats were sacrificed by CO2 inhalation and the hearts were harvested and fixed in 4% buffered Formalin solution. […]
# For the purpose of MI size identification, Masson's Trichrome Staining was used. […] The sections were visualized in a computer-imaging system and infarct size was marked and calculated using the ImageJ program. Infarct size was expressed as percentage of infarct area (unstained) versus the total left ventricle area. For each animal, five serial sections including one containing the ligature were analyzed and the mean value of all sections for each heart was calculated. […]
substance,measurement,setting,value
Dextran sulfate,Body swing test compared to vehicle control,[1],statistically significant improvement
same,Adverse effects in the treated animals,[2],did not cause any adverse effects
same,Angiogenesis in ischemic (right) vs non-ischemic (left) limb,"[3]; CD34 and FITC-dextran capillaries density, FIG. 4",only induce angiogenesis in the ischemic tissue
same,Number of CD34 positive capillaries compared to control group,"[3]; groups 3M and 4M (30 mg/kg) vs 1M, day 35",larger
same,FITC-dextran staining of capillaries (functional capillaries),"[3]; groups 3M and 4M, ischemic limb",functioning and active
same,"SMA staining, capillaries formation",[3]; treated groups vs control,same increase in capillaries formations
same,Forelimb placement test compared to vehicle control,"[4]; all treated rats, starting on day 14 up to day 28",statistically significant improvement
same,"Forelimb placement test, improvement in sensory motor deficits","[4]; group 3M (15 mg/kg daily), first testing on day 7",reached statistical significance
same,Number of SMA capillaries with diameter less than 30 μm,[5]; 15 mg/kg daily vs vehicle control,Improvement
same,Number of capillaries compared to vehicle treated control,"[5]; 15 mg/kg daily, 30 days after stroke",increased the number of capillaries
same,Inflammatory response compared to vehicle treated control,"[5]; GFAP area, day 30",reduced inflammatory response
same,"Infarct size / infarct volume, treatment group 2M vs control group 1M",[6]; 15 mg/kg s.c. 3 times a week for 3 weeks,significant difference; also recorded: significantly decreased the infarct volume
same,Average infarct size compared to untreated control group,[6]; all treatment groups (15 or 3 mg/kg s.c.),smaller average infarct size
